In brackets after ≈: the same amount, converted by molar mass.
Legend:
[1] = Half life in human liver microsomes by LC-MS/MS analysis; type: ADME, Microsome
[2] = Stability in human liver microsomes assessed as parent compound remaining after 60 mins by LC-MS/MS analysis; type: ADME, Microsome; settings: read-out: Stabilty
[3] = Stability in human liver microsomes assessed as parent compound remaining after 60 mins in presence of cofactor by LC-MS/MS analysis; type: ADME, Microsome; settings: read-out: Stabilty
[4] = Intrinsic clearance in human liver microsomes after 60 mins in presence of cofactor by LC-MS/MS analysis; type: ADME, Microsome; settings: 1 h
[5] = Aqueous solubility of compound; type: physicochemical
[6] = Stability in human plasma assessed as parent compound remaining after 2 hrs; type: ADME, cell-free; settings: read-out: Stabilty
[7] = Lipophilicity, logD of the compound at pH 7.4; type: physicochemical; settings: buffer
DNA topoisomerase 1 [8] = molecular target: T1, DNA topoisomerase 1 (Homo sapiens, UniProt P11387); experiment: Inhibition of recombinant human Top1 expressed in baculovirus infected sf9 insect cells using supercoiled pBS (SK+) DNA as substrate incubated for 30 mins by ethidium bromide staining based agarose gel electrophoresis analysis
T1 sequence (P11387 whole entry): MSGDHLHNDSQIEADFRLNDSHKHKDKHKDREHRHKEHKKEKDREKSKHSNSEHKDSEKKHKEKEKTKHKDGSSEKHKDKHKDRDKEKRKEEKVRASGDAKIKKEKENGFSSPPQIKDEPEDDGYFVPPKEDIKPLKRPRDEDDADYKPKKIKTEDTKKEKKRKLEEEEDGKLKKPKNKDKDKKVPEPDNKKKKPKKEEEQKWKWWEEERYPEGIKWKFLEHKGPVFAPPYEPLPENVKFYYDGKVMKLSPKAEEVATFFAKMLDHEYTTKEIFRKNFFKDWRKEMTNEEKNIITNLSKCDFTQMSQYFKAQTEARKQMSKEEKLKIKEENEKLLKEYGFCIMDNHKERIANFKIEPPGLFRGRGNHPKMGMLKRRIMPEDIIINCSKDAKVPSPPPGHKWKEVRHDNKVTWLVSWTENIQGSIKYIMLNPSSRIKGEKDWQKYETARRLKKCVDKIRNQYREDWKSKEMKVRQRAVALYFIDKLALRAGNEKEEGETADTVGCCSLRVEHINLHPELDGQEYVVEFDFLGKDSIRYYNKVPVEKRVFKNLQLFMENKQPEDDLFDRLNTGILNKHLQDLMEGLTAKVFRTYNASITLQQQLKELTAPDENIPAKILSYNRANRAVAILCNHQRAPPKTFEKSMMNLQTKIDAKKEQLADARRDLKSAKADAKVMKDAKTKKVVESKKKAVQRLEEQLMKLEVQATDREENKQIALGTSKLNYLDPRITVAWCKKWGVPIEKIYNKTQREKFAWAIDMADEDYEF

MCF7 = experiment: Cytotoxicity against human MCF7 cells assessed as reduction in cell viability after 48 hr by MTT assay; type: functional, cell-based; settings: MCF7, 48 h
DNA topoisomerase 1 [9] = molecular target: T1, DNA topoisomerase 1; experiment: Inhibition of Top1 in human MCF7 cells using supercoiled pBS (SK+) DNA as substrate incubated for 30 mins by ethidium bromide staining based agarose gel electrophoresis analysis; type: cell-based
HEK293 = experiment: Cytotoxicity against HEK293 cells assessed as reduction in cell viability after 48 hr by MTT assay; type: cell-based; settings: Homo sapiens, HEK293, 48 h

| half-life [1] | remaining at 1 h [2] | remaining at 1 h [3] | CLH [4] | IC50 (DNA topoisomerase 1 [8]) | Structure (SMILES) | remaining at 2 h [6] | IC50 (HEK293) | other results |
| --- | --- | --- | --- | --- | --- | --- | --- | --- |
| 9.94 min | 1.68% | 112% | 69.7 µL/min/mg | – | COc1ccc(-c2ccc3ncc(-c4nnco4)c(NCCCn4ccnc4)c3c2)cc1 | – | – | – |
| 7.77 min | 0% | 93% | 89.3 µL/min/mg | – | Cc1ccc(-c2ccc3ncc(-c4nnco4)c(NCCCn4ccnc4)c3c2)cc1 | 90.8% | – | solubility [5]: 0.3 µg/mL (≈ 0.731 µM); logD [7]: > 3.5 |
| – | – | – | – | > 10 µM | COc1ccc(-c2ccc3ncc(-c4nnco4)c(NCCCN4CCCC4)c3c2)cc1 | – | – | – |
| – | – | – | – | > 10 µM | COc1ccc(-c2ccc3ncc(-c4nnco4)c(NCCCn4cccc4)c3c2)cc1 | – | – | – |
| – | – | – | – | – | CC[C@@]1(O)C(=O)OCc2c1cc1n(c2=O)Cc2cc3ccccc3nc2-1 [CAMPTOTHECIN] | – | 8.75 µM | – |

| Structure (SMILES) | half-life [1] | remaining at 1 h [2] | remaining at 1 h [3] | CLH [4] | IC50 (DNA topoisomerase 1 [8]) | remaining at 2 h [6] | IC50 (HEK293) | other results |
| --- | --- | --- | --- | --- | --- | --- | --- | --- |
| Nc1ccc(-c2ccc3ncc(-c4nnco4)c(NCCCn4ccnc4)c3c2)cc1 | 69.1 min | 53.7% | 93.8% | 10 µL/min/mg | – | 91.3% | > 10 µM | IC50 (MCF7): 2500 nM; IC50 (DNA topoisomerase 1 [9]): 2500 nM |

From ChEMBL document CHEMBL4765384, “Development of a metabolically stable topoisomerase I poison as anticancer agent” (Eur J Med Chem, 2020)
